Laboratory results: patent US20250248979A1, “NOVEL GPX4 INHIBITORS AND USES THEREOF” (THE TRUSTEES OF COLUMBIA UNIVERSITY IN THE CITY OF NEW YORK, priority 2022, published 2025)
Values after ≈ are worked out from the molar mass of the structure shown. Read-outs that look alike come from different tables or passages of the source.

Assays:
Huh7 cells = assay: Cellular dose response assay, Huh7; format: cell-based, human; details: Table 7
Description: (§1) HT-1080 (human [Homo sapiens] […] fibrosarcoma), A-673 (human [Homo sapiens] […] Ewing's sarcoma), and SK-HEP-1 (human [Homo sapiens] […] hepatic adenocarcinoma), cells were obtained from ATCC. Huh7 (human [Homo sapiens] […] hepatocellular carcinoma), HLF (human [Homo sapiens] […] hepatocellular carcinoma), HepG2 (human [Homo sapiens] […] hepatocellular carcinoma), cells were obtained from the Cancer Cell Bank at Columbia University Irving Medical Center. HT-1080, A-673, Huh-7, and HLF cells were grown in Dulbecco's Modified Eagle Medium (DMEM) supplemented with 10% heat inactivated fetal bovine serum (HI-FBS), 1% non-essential amino acids, and 1% penicillin streptomycin. HepG2 and SK-HEP-1 cells were grown in Eagle's Minimum Essential Medium (EMEM) supplemented with 10% HI-FBS, and 1% penicillin-streptomycin. All cells were cultured at 37° C. and 5% CO2.
(§2) HT-1080, HepG2, Huh7, HLF, and SK-HEP-1 cells were seeded into opaque white 384-well plates at 1500 cells per well then incubated at 37° C. with 5% CO2 overnight. The next day, compounds of interest were dissolved in DMSO and 12-point 2-fold dilution series were prepared with and without Fer-1. Cells were treated in triplicate (final DMSO concentration of 0.4% in all wells, including DMSO-only control wells) and incubated for a further 48 hours at 37° C. and 5% CO2. Cell viability was evaluated using CellTiter-Glo (Promega G7573) and luminescence was recorded on a Victor 5 plate reader. Data were analyzed in GraphPad Prism 9 and error bars represent standard deviation values for three technical replicates in a representative experiment.

HepG2 cells = assay: Cellular dose response assay, HepG2; format: cell-based, human; details: Table 7
Description: as §1, §2

HLF cells = assay: Cellular dose response assay, HLF; format: cell-based, human; details: Table 7
Description: as §1, §2

SK-HEP-1 cells = assay: Cellular dose response assay, SK-HEP-1; format: cell-based, human; details: Table 7
Description: as §1, §2

GPX4 = target: T1, GPX4 (Homo sapiens, UniProt P36969); assay: GPX4 activity assay in cell lysates (NADPH-coupled); format: biochemical; parameters: endogenous in cells; host or cells: A-673 cell lysate; details: for GPX4% inhibition at 2.5 μM: 4th generation
T1 sequence (P36969 1-170 isoform P36969-2): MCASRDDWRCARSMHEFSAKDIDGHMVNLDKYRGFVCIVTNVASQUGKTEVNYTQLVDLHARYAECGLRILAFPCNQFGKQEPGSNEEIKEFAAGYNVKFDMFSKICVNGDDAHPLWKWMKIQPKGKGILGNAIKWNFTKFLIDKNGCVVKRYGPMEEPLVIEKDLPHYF
How it was run: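 Native GPX4 in lysates of A-673 cells grown with 20 nM sodium selenite; lysate preincubated with compound 45 min at 37 °C in pH 8.0 buffer with 3 mM GSH, 0.5 mM NADPH and glutathione reductase. Reaction started with phosphatidylcholine hydroperoxide; NADPH consumption followed at 340 nm over 25 min; triplicates.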

HT-1080 cells = assay: Cellular dose response assay, HT-1080 with and without Fer-1; format: cell-based, human; details: for Selectivity: ferroptosis selectivity, IC50 with Fer-1 / IC50
How it was run: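 Following overnight attachment (1500 cells per well), triplicate wells got 2-fold serial dilutions across 12 points, with or without Fer-1 for HT-1080, at 0.4% final DMSO. After 48 h incubation, luminescent ATP-based viability (CellTiter-Glo) was recorded.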

in vitro [1] = format: in vitro ADME, mouse
Procedure: (§3) […]. The incubation timepoints measured were 0, 5, 10, 15, 30, and 45 minutes. All samples were prepared in duplicate and analyzed by LC-MS/MS.

[2] = Kinetic aqueous solubility
in vitro [3] = format: in vitro ADME, human; details: for Microsome Stability t1/2 (min) human: microsomes
Procedure: as §3

[4] = 1% DMSO, Phosphate Buffered Saline pH 7.4, 1 hour, ambient, UV/Vis absorbance
[5] = with Fer-1, Table 10, read-out: IC50 (μM) HT1080 + Fer-1
[6] = without Fer-1, Table 10, read-out: IC50 (μM) HT1080

SMILES: Cn1nc(C(=O)NC(C)(C)COC(=O)CBr)c2ccccc21 [QW-365]
- IC50 (Huh7 cells; compounds alone, read-out: IC50 (uM) Huh7^a): 0.8 µM
- IC50 (Huh7 cells; with fer-1, read-out: IC50 (uM) Huh7^b): 16.8 µM
- IC50 (HepG2 cells; compounds alone, read-out: IC50 (uM) HEPG2^a): 2.9 µM
- IC50 (HepG2 cells; with fer-1, read-out: IC50 (uM) HEPG2^b): 18.6 µM
- IC50 (HLF cells; compounds alone, read-out: IC50 (uM) HLF^a): 0.5 µM
- IC50 (HLF cells; with fer-1, read-out: IC50 (uM) HLF^b): 8.8 µM
- IC50 (SK-HEP-1 cells; compounds alone, read-out: IC50 (uM) SKHEP1^a): 0.3 µM
- IC50 (SK-HEP-1 cells; with fer-1, read-out: IC50 (uM) SKHEP1^b): 12.1 µM
- GPX4% inhibition at 200 (μM) (GPX4; 200 μM, generation 2): 94.5 ± 4.5%
- IC50 (HT-1080 cells; compounds alone, Table 7, read-out: IC50 (uM) HT1080^a): 0.7 µM
- IC50 (HT-1080 cells; with fer-1, Table 7, read-out: IC50 (uM) HT1080^b): 12.2 µM

SMILES: COc1ccc(-c2ccc3c(C(=O)NC(C)(C)COC(=O)CCl)nn(C)c3c2)cc1C [QW-488]
- Microsome Stability t1/2 (min) mouse (in vitro [1]; mouse, microsomes): 1.1 min
- Solubility [2, 4]: 5.4 µM (≈ 2.4 µg/mL)
- Solubility ([2]; aqueous solubility, Table 9): 5.4 µM (≈ 2.4 µg/mL)
- GPX4% inhibition at 5 μM (GPX4): 87.3 ± 3.3%
- Microsome Stability t1/2 (min) human (in vitro [3]): 1.8 min

SMILES: CC(C)Oc1ccc(-c2ccc3c(C(=O)NC(C)(C)COC(=O)CCl)nn(C)c3c2)cc1 [QW-506]
- Microsome Stability t1/2 (min) mouse (in vitro [1]; mouse, microsomes): 1.7 min
- Solubility [2, 4]: 1.7 µM (≈ 0.779 µg/mL)
- Solubility ([2]; aqueous solubility, Table 9): 1.7 µM (≈ 0.779 µg/mL)
- GPX4% inhibition at 5 μM (GPX4): 75.4 ± 3.9%
- Microsome Stability t1/2 (min) human (in vitro [3]): 2.9 min

SMILES: COc1ccc(-c2cc(Cl)cc(Cn3nc(C(=O)NC(C)(C)COC(=O)CCl)c4ccc(-c5ccc(OC)c(Cl)c5)cc43)c2)cc1Cl [QW-853]
- GPX4% inhibition at 2.5 μM (GPX4): 45.5 ± 34.3%
- Selectivity (HT-1080 cells): 56.8
- IC50 (HT-1080 cells; [5]): 21 µM
- IC50 (HT-1080 cells; [6]): 0.37 µM

SMILES: CC(C)Oc1ccc(-c2ccc3c(C(=O)NC(C)(C)COC(=O)CCl)nn(Cc4cc(Cl)cc(Cl)c4)c3c2)cc1Cl [QW-857]
- GPX4 inhibitory activity, result in words (GPX4): greater GPX4 inhibitory activity than QW-446 at 2.5 μM concentration
- GPX4% inhibition at 2.5 μM (GPX4): 66.7 ± 26.2%
- Selectivity (HT-1080 cells): >790
- IC50 (HT-1080 cells; read-out: IC50 against HT1080 cell lines): 0.0506 µM
- IC50 (HT-1080 cells; [5]): > 40 µM

SMILES: COc1ccc(-c2ccc3c(C(=O)NC(C)(C)COC(=O)CCl)nn(Cc4ccc(C(F)(F)F)cc4)c3c2)cc1Cl [QW-873]
- GPX4% inhibition at 2.5 μM (GPX4): 45.6 ± 39.7%
- Selectivity (HT-1080 cells): 3.4
- IC50 (HT-1080 cells; [5]): 26.8 µM
- IC50 (HT-1080 cells; [6]): 8 µM

SMILES: CC(C)(COC(=O)CCl)NC(=O)c1nn(Cc2ccc(C(F)(F)F)cc2)c2cc(-c3ccc(N4CCOCC4)c(Cl)c3)ccc12 [QW-874]
- GPX4% inhibition at 2.5 μM (GPX4): 57.5 ± 24.5%
- Selectivity (HT-1080 cells): 1.7
- IC50 (HT-1080 cells; [5]): 49 µM
- IC50 (HT-1080 cells; [6]): 28.3 µM

SMILES: CC(C)(COC(=O)CCl)NC(=O)c1nn(Cc2ccc(-c3ccc(N4CCOCC4)c(Cl)c3)cc2)c2cc(-c3ccc(N4CCOCC4)c(Cl)c3)ccc12 [QW-883]
- GPX4% inhibition at 2.5 μM (GPX4): 41.1 ± 40.9%
- Selectivity (HT-1080 cells): 371.4
- IC50 (HT-1080 cells; [5]): 20.8 µM
- IC50 (HT-1080 cells; without Fer-1, Table 10, read-out: IC50 HT1080): 0.0564 µM

SMILES: COc1ccc(-c2cc(Cl)cc(Cn3nc(C(=O)NC(C)(C)C(C)(C)OC(=O)CCl)c4ccc(-c5ccc(OC)c(Cl)c5)cc43)c2)cc1Cl [QW-888]
- GPX4% inhibition at 2.5 μM (GPX4): 78.7 ± 5.0%
- Selectivity (HT-1080 cells): 2.0
- IC50 (HT-1080 cells; [5]): 49.6 µM
- IC50 (HT-1080 cells; [6]): 24.5 µM

SMILES: C[C@]12CC[C@H]3[C@@H](CCC4=CC(=O)CC[C@@]43C)[C@@H]1CC[C@@H]2O [Testosterone, reference compound]
- Microsome Stability t1/2 (min) mouse (in vitro [1]; mouse liver microsomes): 5.3 min
- half-life (in vitro [3]; pH 7.4, human liver microsomes, read-out: Microsome Stability t1/2 (min) human): 9.5 min
